The source of these data is patent US12492183B2, “Tetrahydroquinazoline derivatives as selective cytotoxic agents” (Merck Sharp & Dohme LLC, priority 2020, dated 2025).

Molecules are shown by their SMILES.

This assay deals with PBMCs infected with VSV-G pseudotyped HIV virus (VSV-G/pNLG1-P2A-ΔEnv). Kind of assay: cells. It counts as cell-based. The settings on record: Homo sapiens, PBMC, read-out: TACK EC50.

Turning to `CC(F)(F)[C@@]1(C#CC2CC2)NC(=O)Nc2cc(Cc3ccc(S(N)(=O)=O)cc3)ccc21` (single isomer, unassigned) [Example 20], the half-maximal effective concentration (EC50) was found to be 115 nM.

`CN1C(=O)Nc2cc(Cc3ccnc(N)n3)c(Cl)cc2[C@@]1(C#CC1CC1)C(F)(F)F` (single isomer, unassigned) [Example 30]: the concentration for a half-maximal effect (EC50) amounted to 64.7 nM.

Turning to `CN1C(=O)Nc2cc(Cc3ccnc(N)n3)c(F)cc2[C@@]1(C#CC1CC1)C(F)(F)F` (single isomer, unassigned) [Example 40], the EC50 is 41.6 nM.

For `Cc1nc(C)c(Cc2cc3c(cc2Cl)[C@@](C#CC2CC2)(C(F)(F)F)NC(=O)N3)c(=O)[nH]1` (single isomer, unassigned) [Example 62B], the EC50 amounted to 68.7 nM.

On to `Cc1ccc(Cc2ccc3c(c2)NC(=O)N[C@]3(C#CC2CC2)C(F)(F)F)c(=O)[nH]1` [Example 1, (S)-4-(cyclopropylethynyl)-7-((6-methyl-2-oxo-1,2-dihydropyridin-3-yl)methyl)-4-(trifluoromethyl)-3,4-dihydroquinazolin-2(1H)-one], for which the EC50 amounted to 120 nM.

As to `Cc1cc[nH]c(=O)c1Cc1ccc2c(c1)NC(=O)N[C@]2(C#CC1CC1)C(F)(F)F` [Example 2, (S)-4-(cyclopropylethynyl)-7-((4-methyl-2-oxo-1,2-dihydropyridin-3-yl)methyl)-4-(trifluoromethyl)-3,4-dihydroquinazolin-2(1H)-one], the half-maximal effective concentration (EC50) was found to be 132 nM.

With `O=C1Nc2cc(Cc3ccc[nH]c3=O)ccc2[C@@](C#CC2CC2)(C(F)(F)F)N1` [Example 3, (S)-4-(cyclopropylethynyl)-7-((2-oxo-1,2-dihydropyridin-3-yl)-methyl)-4-(trifluoromethyl)-3,4-dihydroquinazolin-2(1H)-one], the EC50 amounted to 237 nM.

As for `Cn1cc(Cc2ccc3c(c2)NC(=O)N[C@]3(C#CC2CC2)C(F)(F)F)ccc1=O` [Example 4, (S)-4-(cyclopropylethynyl)-7-((1-methyl-6-oxo-1,6-dihydropyridin-3-yl)methyl)-4-(trifluoromethyl)-3,4-dihydroquinazolin-2(1H)-one], the EC50 worked out at 148 nM.

Consider `Cn1ccc(Cc2ccc3c(c2)NC(=O)N[C@]3(C#CC2CC2)C(F)(F)F)cc1=O` [Example 5, (S)-4-(cyclopropylethynyl)-7-((1-methyl-2-oxo-1,2-dihydropyridin-4-yl)methyl)-4-(trifluoromethyl)-3,4-dihydroquinazolin-2(1H)-one], for which the EC50 turned out to be 160 nM.

In the case of `NS(=O)(=O)c1ccc(Cc2ccc3c(c2)NC(=O)N[C@]3(C#CC2CC2)C(F)(F)F)c(F)c1` [Example 6, (S)-4-((4-(cyclopropylethynyl)-2-oxo-4-(trifluoromethyl)-1,2,3,4-tetrahydroquinazolin-7-yl)methyl)-3-fluorobenzenesulfonamide], the EC50 is 284 nM.

With `Nc1cc(Cc2ccc3c(c2)NC(=O)N[C@]3(C#CC2CC2)C(F)(F)F)ccc1S(N)(=O)=O` [Example 7], the concentration for a half-maximal effect (EC50) amounted to 230 nM.

Take `NC(=O)c1ccc(Cc2ccc3c(c2)NC(=O)N[C@]3(C#CC2CC2)C(F)(F)F)cc1` [Example 8, (S)-4-((4-(cyclopropylethynyl)-2-oxo-4-(trifluoromethyl)-1,2,3,4-tetrahydroquinazolin-7-yl)meth-yl)benzamide]: the EC50 came to 262 nM.

Take `NS(=O)(=O)c1ccc(Cc2ccc3c(c2)NC(=O)N[C@]3(C#CC2CC2)C(F)(F)F)cc1` [Example 9, (S)-4-((4-(cyclopropylethynyl)-2-oxo-4-(trifluoromethyl)-1,2,3,4-tetrahydroquinazolin-7-yl)meth-yl)benzenesulfonamide]: the EC50 was determined as 193 nM.

Take `CS(=O)(=O)c1ccc(Cc2cc3c(cc2F)[C@@](C#CC2CC2)(C(F)(F)F)NC(=O)N3)cc1` [Example 10, (S)-4-(cyclopropylethynyl)-6-fluoro-7-(4-(methylsulfonyl)-benzyl)-4-(trifluoromethyl)-3,4-dihydroquinazolin-2(1H)-one]: the EC50 was 380 nM.

For `NS(=O)(=O)c1ccc(Cc2cc3c(cc2F)[C@@](C#CC2CC2)(C(F)(F)F)NC(=O)N3)cc1` [Example 11, (S)-4-((4-(cyclopropylethynyl)-6-fluoro-2-oxo-4-(trifluoromethyl)-1,2,3,4-tetrahydroquinazolin-7-yl)methyl)benzenesulfonamide], the EC50 was 257 nM.

Take `Nc1cc(Cc2ccc3c(c2)NC(=O)N[C@]3(C#CC2CC2)C(F)(F)F)ccn1` [Example 12, (S)-2-amino-4-((4-(cyclopropylethynyl)-2-oxo-4-(trifluoromethyl)-1,2,3,4-tetrahydroquinazolin-7-yl)methyl)pyridin-1-ium 2,2,2-trifluoroacetate]: the EC50 was found to be 132 nM.

`Nc1cccc(Cc2cc3c(cc2F)[C@@](C#CC2CC2)(C(F)(F)F)NC(=O)N3)n1` [Example 13, (S)-2-amino-6-((4-(cyclopropyl-ethynyl)-6-fluoro-2-oxo-4-(trifluoromethyl)-1,2,3,4-tetra-hydroquinazolin-7-yl)methyl)-pyridin-1-ium 2,2,2-trifluoro-acetate]: the EC50 was 130 nM.

`Nc1cc(Cc2cc3c(cc2F)[C@@](C#CC2CC2)(C(F)(F)F)NC(=O)N3)ccn1` [Example 14, (S)-2-amino-4-((4-(cyclopropyl-ethynyl)-6-fluoro-2-oxo-4-(trifluoromethyl)-1,2,3,4-tetra-hydroquinazolin-7-yl)methyl)-pyridin-1-ium 2,2,2-trifluoro-acetate]: the EC50 came to 121 nM.

Take `Nc1ncc(F)c(Cc2ccc3c(c2)NC(=O)N[C@]3(C#CC2CC2)C(F)(F)F)n1` [Example 15, (S)-7-((2-amino-5-fluoropyrimi-din-4-yl)methyl)-4-(cycloprop-ylethynyl)-4-(trifluoromethyl)-3,4-dihydroquinazolin-2(1H)-one]: the EC50 was 21.4 nM.

`Cc1ncc(Cc2ccc3c(c2)NC(=O)N[C@]3(C#CC2CC2)C(F)(F)F)c(=O)[nH]1` [Example 16, (S)-4-(cyclopropylethynl)-7-((2-methyl-6-oxo-1,6-dihydropyrimidin-5-yl)methyl)-4-(trifluoromethyl)-3,4-dihydroquinazolin-2(1H)-one]: the EC50 stood at 153 nM.

For `Cc1nc(C)c(Cc2cc3c(cc2F)[C@@](C#CC2CC2)(C(F)(F)F)NC(=O)N3)c(=O)[nH]1` [Example 17, (S)-4-(cyclopropylethynyl)-7-((2,4-dimethyl-6-oxo-1,6-dihydropyrimidin-5-yl)meth-yl)-6-fluoro-4-(trifluorometh-yl)-3,4-dihydroquinazolin-2(1H)-one], the EC50 was determined as 46 nM.

`Cc1nc[nH]c(=O)c1Cc1ccc2c(c1)NC(=O)N[C@]2(C#CC1CC1)C(F)(F)F` [Example 18, (S)-4-(cyclopropylethynyl)-7-((4-methyl-6-oxo-1,6-dihydro-pyrimidin-5-yl)methyl)-4-(trifluoromethyl)-3,4-dihydro-quinazolin-2(1H)-one]: the concentration for a half-maximal effect (EC50) amounted to 174 nM.

With `Cc1nc(C)c(Cc2ccc3c(c2)NC(=O)N[C@]3(C#CC2CC2)C(F)(F)F)c(=O)[nH]1` [Example 19, (S)-4-(cyclopropylethynyl)-7-((2,4-dimethyl-6-oxo-1,6-dihydropyrimidin-5-yl)meth-yl)-4-(trifluoromethyl)-3,4-dihydroquinazolin-2(1H)-one], the EC50 worked out at 136 nM.

For `CCN1C(=O)Nc2cc(Cc3c(C)nc(C)[nH]c3=O)ccc2[C@@]1(C#CC1CC1)C(F)(F)F` [Example 21, (S)-4-(cyclopropylethynyl)-7-((2,4-dimethyl-6-oxo-1,6-dihydropyrimidin-5-yl)methyl)-3-ethyl-4-(trifluoromethyl)-3,4-dihydroquinazolin-2(1H)-one], the EC50 turned out to be 139 nM.

For the compound `Cc1nc(C)c(Cc2ccc3c(c2)NC(=O)N(C)[C@]3(C#CC2CC2)C(F)(F)F)c(=O)[nH]1` [Example 22], the EC50 was found to be 230 nM.

On to `Cc1nc(C)c(Cc2ccc3c(c2)NC(=O)N(C(C)C)[C@]3(C#CC2CC2)C(F)(F)F)c(=O)[nH]1` [Example 23, (S)-4-(cyclopropylethynyl)-7-((2,4-dimethyl-6-oxo-1,6-dihydropyrimidin-5-l)meth-yl)-3-isopropyl-4-(trifluoro-methyl)-3,4-dihydroquin-azolin-2(1H)-one], for which the EC50 was determined as 151 nM.

For the compound `Cc1nc(C)c(Cc2ccc3c(c2)NC(=O)N(CC(F)F)[C@]3(C#CC2CC2)C(F)(F)F)c(=O)[nH]1` [Example 24, (S)-4-(cyclopropylethynyl)-3-(2,2-difluoroethyl)-7-((2,4-dimethyl-6-oxo-1,6-dihydropyrimidin-5-l)meth-yl)-4-(trifluoromethyl)-3,4-dihydroquinazolin-2(1H)-one], the EC50 came to 146 nM.

For the compound `Nc1nccc(Cc2ccc3c(c2)NC(=O)N[C@]3(C#CC2CC2)C(F)(F)F)n1` [Example 25, (S)-7-((2-aminopyrimidin-4-yl)methyl)-4-(cyclopropylethynyl)-4-(trifluoromethyl)-3,4-dihydroquinazolin-2(1H)-one], the EC50 was found to be 45.5 nM.

As for `CC(F)(F)[C@@]1(C#CC2CC2)NC(=O)Nc2cc(Cc3ccnc(N)n3)ccc21` [Example 26, (S)-7-((2-aminopyrimidin-4-yl)methyl)-4-(cyclopropyl-ethynyl)-4-(1,1-difluoroethyl)-3,4-dihydroquinazolin-2(1H)-one], the EC50 is 31.2 nM.

Take `Cc1cc(Cc2ccc3c(c2)NC(=O)N[C@]3(C#CC2CC2)C(F)(F)F)nc(N)n1` [Example 27, (S)-7-((2-amino-6-methylpyr-imidin-4-yl)methyl)-4-(cyclo-propylethynyl)-4-(trifluoro-methyl)-3,4-dihydroquin-azolin-2(1H)-one]: the EC50 turned out to be 152 nM.

Take `Nc1ncc(Cl)c(Cc2ccc3c(c2)NC(=O)N[C@]3(C#CC2CC2)C(F)(F)F)n1` [Example 28, (S)-7-((2-amino-5-chloropyr-imidin-4-yl)methyl)-4-(cyclo-propylethynyl)-4-(trifluoro-methyl)-3,4-dihydroquinazo-lin-2(1H)-one]: the EC50 is 144 nM.

Regarding `Nc1ncc(F)c(Cc2cc3c(cc2F)[C@@](C#CC2CC2)(C(F)(F)F)NC(=O)N3)n1` [Example 29, (S)-7-((2-amino-5-fluoropyr-imidin-4-yl)methyl)-4-(cyclo-propylethynyl)-6-fluoro-4-(trifluoromethyl)-3,4-dihydro-quinazolin-2(1H)-one], the EC50 came out at 49.7 nM.

In general, EC50 refers to the concentration that produces a half-maximal response.
